Measured values as given in PubChem BioAssay (NCI).
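Growth conditions: 96-well plates. Treatment: test compound, 48 hours, 5 concentrations. Analysis: linear interpolation between bracketing concentrations; unreached endpoints set to highest concentration. The concentration for 50% growth inhibition is given as GI50. TGI denotes the concentration required for complete inhibition of growth.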

Experiments:
Test in all cases: inhibition of tumour cell growth, NCI panel, 48 h
[1] = system: 786-0 renal
[2] = system: K-562 leukemia
[3] = system: MALME-3M melanoma
[4] = system: TK-10 renal
[5] = system: SR leukemia
[6] = system: NCI-H23 lung
[7] = system: SW-620 colon
[8] = system: BT-549 breast
[9] = system: MDA-MB-231 breast
[10] = system: T-47D breast

## COc1ccc(N/N=C(\CCN(C)C)c2ccccc2)cc1
[1]
  TGI: 12.4 µM
[2]
  TGI: 7.31 µM
[3]
  TGI: 35.2 µM
[4]
  TGI: 6.02 µM
[5]
  TGI: 15.6 µM
[6]
  TGI: 19.7 µM
[7]
  TGI: 10.9 µM

## CC(=O)OC1CC2Oc3ccc(C)cc3C(C)(O2)C1=O (stereo not drawn)
[1]
  TGI: > 100 µM
[2]
  TGI: > 100 µM
[3]
  TGI: > 100 µM
[4]
  TGI: > 100 µM
[6]
  TGI: > 100 µM
[7]
  TGI: > 100 µM

## O=C1c2ccccc2NC1(c1ccccc1)c1c(-c2ccccc2)[nH]c2ccccc12 (stereo not drawn)
[1]
  TGI: > 100 µM
[2]
  TGI: > 100 µM
[5]
  TGI: > 100 µM
[6]
  TGI: > 100 µM
[7]
  TGI: > 100 µM

## CCCCCCCCCCCCCCCC[N+](C)(CCO)Cc1cnc[nH]1 (stereo not drawn)
[8]
  GI50: 2.52 µM
  TGI: 7.05 µM
[1]
  GI50: 0.852 µM
  TGI: 2.84 µM
[2]
  GI50: 1.57 µM
  TGI: > 100 µM
[3]
  GI50: 2.01 µM
  TGI: 6.54 µM
[9]
  GI50: 1.48 µM
  TGI: 5.5 µM
[5]
  GI50: 1.97 µM
  TGI: > 100 µM
[6]
  GI50: 0.858 µM
  TGI: 5.3 µM
[10]
  GI50: 2.8 µM
  TGI: 28.1 µM
[7]
  GI50: 0.978 µM
  TGI: 13.7 µM

## CC(=O)C1C(=O)NC(=O)C1=O (stereo not drawn)
[1]
  TGI: > 100 µM
[2]
  TGI: > 100 µM
[3]
  TGI: > 100 µM
[4]
  TGI: > 100 µM
[6]
  TGI: > 100 µM
[7]
  TGI: > 100 µM

## COc1ccc(NC(=O)CC/C(CC(=O)C(C)(C)C)=N\NC(=O)C(N)=O)cc1
[1]
  TGI: > 100 µM
[2]
  TGI: > 100 µM
[3]
  TGI: > 100 µM
[5]
  TGI: > 100 µM
[6]
  TGI: > 100 µM
[7]
  TGI: > 100 µM

## C#CCN(N=O)C(=O)NC(CCCNC(=O)OCc1ccccc1)C(=O)OCc1ccccc1 (stereo not drawn)
[1]
  TGI: > 100 µM
[2]
  TGI: > 100 µM
[3]
  TGI: > 100 µM
[4]
  TGI: > 100 µM
[5]
  TGI: 84.2 µM
[6]
  TGI: > 100 µM
[7]
  TGI: > 100 µM

## O=Cc1ccc(-c2ccc(-c3nc4ccccc4o3)cc2)s1
[8]
  GI50: 18 µM
  TGI: 52.6 µM
[1]
  GI50: 31.9 µM
  TGI: > 100 µM
[2]
  GI50: 37 µM
  TGI: > 100 µM
[4]
  GI50: 33.6 µM
  TGI: 81.3 µM
[9]
  GI50: 21.9 µM
  TGI: 55.2 µM
[5]
  GI50: 15.3 µM
  TGI: 47.7 µM
[6]
  GI50: 30.2 µM
  TGI: > 100 µM
[10]
  GI50: 22.6 µM
  TGI: > 100 µM
[7]
  GI50: 71.2 µM
  TGI: > 100 µM

## Cc1cc2cn3c4ccc(O)cc4[nH]c(=O)c3c2cc1C
[1]
  GI50: 0.0696 µM
  TGI: 1.83 µM
[2]
  TGI: 0.329 µM
[4]
  GI50: 0.667 µM
  TGI: 2.13 µM
[9]
  GI50: 0.071 µM
  TGI: 1.22 µM
[5]
  GI50: 0.0342 µM
  TGI: 0.415 µM
[6]
  GI50: 0.0744 µM
  TGI: 1.4 µM
[7]
  GI50: 0.0105 µM
  TGI: 1.53 µM

## COc1ccc(Cc2cc3c(cc2OCC(=O)O)OCO3)cc1
[1]
  TGI: > 100 µM
[2]
  TGI: > 100 µM
[3]
  TGI: > 100 µM
[4]
  TGI: > 100 µM
[5]
  TGI: > 100 µM
[6]
  TGI: > 100 µM
[7]
  TGI: > 100 µM

## O=C(O)/C(Cl)=C(\Cl)C(=O)NC1C2CC3CC(C2)CC1C3 (stereo not drawn)
[1]
  TGI: > 100 µM
[2]
  TGI: > 100 µM
[3]
  TGI: > 100 µM
[5]
  TGI: > 100 µM
[6]
  TGI: > 100 µM
[7]
  TGI: > 100 µM

## O=C(CC1(O)C(=O)Nc2ccccc21)c1ccco1 (stereo not drawn)
[1]
  TGI: > 100 µM
[2]
  TGI: > 100 µM
[3]
  TGI: > 100 µM
[4]
  TGI: > 100 µM
[6]
  TGI: > 100 µM
[7]
  TGI: > 100 µM

## OC(COc1ccc(F)cc1)Cn1cnc2c(Cl)ncnc21 (stereo not drawn)
[8]
  GI50: > 100 µM
  TGI: > 100 µM
[1]
  GI50: > 100 µM
  TGI: > 100 µM
[3]
  GI50: 33.6 µM
  TGI: > 100 µM
[4]
  GI50: 63.3 µM
  TGI: > 100 µM
[9]
  GI50: 64.7 µM
  TGI: > 100 µM
[10]
  GI50: > 100 µM
  TGI: > 100 µM
[7]
  GI50: 72.9 µM
  TGI: > 100 µM

## COc1cc2c(cc1OC)C(OC)N(C)c1c-2ccc2cc3c(cc12)OCO3 (stereo not drawn)
[8]
  TGI: > 75 µM
[1]
  TGI: 5.47 µM
[2]
  TGI: 33.2 µM
[3]
  TGI: 20 µM
[4]
  TGI: > 75 µM
[9]
  TGI: 5.16 µM
[5]
  TGI: > 75 µM
[6]
  TGI: 6.49 µM
[7]
  TGI: 8.35 µM

## COC(=O)CCC(=O)Nc1cc(Cl)ccc1Cl
[1]
  TGI: > 100 µM
[2]
  TGI: > 100 µM
[3]
  TGI: > 100 µM
[5]
  TGI: > 100 µM
[6]
  TGI: > 100 µM
[7]
  TGI: > 100 µM

## COC(=O)Nc1nc2ccc(C(=O)c3ccc(N(C)C4COC4)cc3)cc2[nH]1
[8]
  GI50: 2.08 µM
  TGI: > 100 µM
[1]
  GI50: 0.5 µM
  TGI: > 100 µM
[2]
  GI50: 0.333 µM
  TGI: > 100 µM
[4]
  GI50: 31.3 µM
  TGI: > 100 µM
[9]
  GI50: 0.608 µM
  TGI: > 100 µM
[5]
  GI50: 0.188 µM
  TGI: > 100 µM
[6]
  GI50: 0.713 µM
  TGI: > 100 µM
[7]
  GI50: 0.355 µM
  TGI: > 100 µM

## CCOC(=O)C(=O)Nc1ccc(Cl)cc1C
[1]
  TGI: > 100 µM
[2]
  TGI: > 100 µM
[3]
  TGI: > 100 µM
[4]
  TGI: > 100 µM
[5]
  TGI: > 100 µM
[6]
  TGI: > 100 µM
[7]
  TGI: > 100 µM

## CCN1C2=NCCN2S(=O)(=O)c2ccccc21
[8]
  TGI: > 100 µM
[1]
  TGI: > 100 µM
[2]
  TGI: > 100 µM
[4]
  TGI: > 100 µM
[9]
  TGI: > 100 µM
[6]
  TGI: > 100 µM
[10]
  TGI: > 100 µM
[7]
  TGI: > 100 µM

## CC(=O)[O-].[Mn+3].[O-]c1ccccc1C=NCCN=Cc1ccccc1[O-]
[1]
  GI50: > 100 µM
  TGI: > 100 µM
[2]
  GI50: 30.3 µM
  TGI: > 100 µM
[3]
  GI50: > 100 µM
  TGI: > 100 µM
[4]
  GI50: > 100 µM
  TGI: > 100 µM
[5]
  GI50: 70.9 µM
  TGI: > 100 µM
[6]
  GI50: 58.9 µM
  TGI: > 100 µM
[7]
  GI50: > 100 µM
  TGI: > 100 µM

## COC(=O)c1c(O)c([N+](=O)[O-])cc2c1c1c(n2Cc2ccccc2)C(=O)c2ccccc2C1=O
[8]
  GI50: 5.9 µM
  TGI: 51.5 µM
[1]
  GI50: 15.7 µM
  TGI: 59.6 µM
[2]
  GI50: 19 µM
  TGI: 92.6 µM
[3]
  GI50: 23.4 µM
  TGI: 46 µM
[4]
  GI50: 18.7 µM
  TGI: > 100 µM
[9]
  GI50: 19.9 µM
  TGI: > 100 µM
[6]
  GI50: 21.9 µM
  TGI: 84.4 µM
[10]
  GI50: 11.8 µM
  TGI: 45.8 µM
[7]
  GI50: 2.97 µM
  TGI: 11.4 µM

## COc1cc(O)c2c(c1)C(=O)C=C(Cl)C2=O
[1]
  TGI: > 100 µM
[2]
  TGI: > 100 µM
[3]
  TGI: > 100 µM
[4]
  TGI: > 100 µM
[6]
  TGI: > 100 µM
[7]
  TGI: > 100 µM
